The subject of assay [1] is CD99-transfected SAOS-2 and U-2 OS cells. Kind of assay: Real-time proliferation (xCELLigence) of OS cells with forced CD99 expression. It is filed as cell-based, human. The note with it: dose-dependent. Here is the method:
U-2 OS and SAOS-2 cells were transfected with pcDNA3.1 expression vector carrying the human full-length CD99 transcript variant 1 cDNA using the X-tremeGene 9 DNA transfection reagent (Roche Diagnostics) according to the manufacturer's recommendations. The expression of CD99 was assessed after 48 h by immunoblotting.
OS cells express low levels of CD99 and the forced ectopic expression of CD99 reduces their growth. To test whether cladribine can rescue the reduced proliferation phenotype induced by overexpression of CD99, U-2 OS and SAOS-2 cells were transiently transfected with a mammalian expression vector containing cDNA encoding full length human CD99. As expected, CD99-forced expression suppressed cell proliferation compared with empty-vector transfected cells, which was rescued by the addition of cladribine in a dose-dependent manner (FIGS. 7C-D and FIG. 9).

A further assay relates to TC-CD99-shRNA #1 cells. Put plainly: Soft agar colony formation assay, CD99 knockdown cells. It is filed as cell-based, human.
A further assay has as its target T1, CD99 protein (Homo sapiens, UniProt P14209).
T1 construct: The thermostability of endogenous CD99 protein increased in cell lysates from TC-71 cells; endogenous in cells; host or cells: TC-71 total cell lysate
Put plainly: Cellular thermal shift assay (CETSA) in TC-71 cell lysates. The note with it: 3.0 μmol/L, 30 min, high temperatures vs control lysates. It is filed as binding. Here is the method: The CETSA method was used according to Martinez Molina et al. (“Monitoring drug target engagement in cells and tissues using the cellular thermal shift assay,” Science 341: 84-87 (2013)) and Jafari et al. (“The cellular thermal shift assay for evaluating drug target interactions in cells,” Nat Protoc 9:2100-22 (2014)). […] The cell lysates in 60 μL volumes were individually heated in thin wall PCR tubes to the indicated temperatures for 3 min, by using Veriti 96-well Thermal Cycler (Applied Biosystems (Foster City, Calif.)). Samples were then centrifuged at 16,000×g for 30 min at 4° C. to remove insoluble proteins, and 40 ul of the resulting supernatants were transferred into new eppendorf tubes for subsequent SDS-PAGE and immunoblotting analysis.

The subject of another assay is U-2 OS cells. Put plainly: Secondary functional screen, negative control cell line. The note with it: Homo sapiens, U2OS; 10 μmol/L, 48 h, WST-1; read-out: growth inhibition of OS cell lines (U-2 OS). The class given is cell-based.
The next assay deals with A4573 xenografts. Put plainly: Orthotopic A4573 xenograft, i.p. administration. The class given is in vivo, SCID/beige mice. Here is the method:
(§1) All tumor tissues were fixed in 10% neutral buffered formalin for 24 h, dehydrated through a graded series of alcohols and cleared in xylenes prior to embedding in paraffin. Embedded tissues were cut into 5 μm thick sections and stained with hematoxylin and eosin (H&E). Immunohistochemical staining was performed for CD99 and caspase 3 (cleaved). Five micron sections from formalin fixed paraffin embedded tissues were de-paraffinized with xylenes and rehydrated through a graded alcohol series. Heat induced epitope retrieval was performed by immersing the tissue sections at 98° C. for 60 min in 10 mmol/L citrate buffer (pH 6.0). Immunohistochemical staining was performed using a horseradish peroxidase labeled polymer from Agilent (Santa Clara, Calif.) (#K4001, #K4003) according to manufacturer's instructions. Briefly, slides were treated with 3% hydrogen peroxide and 10% normal goat serum for 10 min each, and exposed to primary antibodies for CD99 (Abcam, #ab8855) at a 1:100 dilution and for caspase 3 (cleaved) (Biocare (Pacheco, Calif.), #CP229A) at a 1:90 dilution in Da Vinci Green for one hour and stained on an DAKO Autostainer. Slides were exposed to the appropriate HRP labeled polymer for 30 min and DAB chromogen (Dako (Santa Clara, Calif.) for 5 min. Slides were counterstained with Hematoxylin (Fisher, Harris Modified Hematoxylin), blued in 1% ammonium hydroxide, dehydrated, and mounted with Acrymount. Consecutive sections with the primary antibody omitted were used as negative controls. The sections were evaluated in a blinded fashion by a board certified pathologist.
The antitumor activity of drugs through intraperitoneal (i.p.) administration given once daily was determined. […] The in vivo potencies of drug treatments were evaluated by event-free survival curves, where tumors that reached 1.0 cm^3 in size considered an event.

In another assay the test system is A4573 ES cells. Put plainly: Cell viability IC50 (WST-1), A4573. The class given is cell-based, human. Particulars: Homo sapiens, WST-1, 48 h (FIG. 10B). On the technique in general: Formazan colour is commonly taken as a measure of viable cells.
Assay [2] deals with MSK1/2 phosphorylation in STA-ET-7.2 and TC-32 cells. Put plainly: MSK1/2 phosphorylation by immunoblot, ES cells. The note with it: 0.6 μmol/L (STA-ET-7.2) or 0.5 μmol/L (TC-32), 24 h, vs vehicle. The class given is cell-based, human. Here is the method: In a parallel set of experiment, cells were also treated with 15 μg/mL of either mouse control IgM or CD99 blocking antibody for the same duration. Total cell lysates were analyzed by immunoblotting for MSK1/2 phosphorylation. […] In a parallel set of experiment, cells were transfected with either siRNA control or siRNA targeting the coding region of CD99 protein. Total cell lysates were analyzed after 48 h by immunoblotting for MSK1/2 phosphorylation after cell transfection. […] In FIG. 23D, SCID/beige mice were implanted with TC-71 xenografts in their tibia. […] Tumor lysates were analyzed by immunoblotting for MSK1/2 phosphorylation.
Quantitative analysis of protein bands was performed using ImageJ 1.48v software. Immunoblotting was performed as described above.
(In general: In western blotting, separated proteins are transferred to a membrane and probed.)

A further assay relates to TC-71 xenografts. Put plainly: Orthotopic TC-71 xenograft, oral administration. The class given is in vivo, SCID/beige mice. Here is the method: as §1
In this study, reduction in number of mitotic figures and increase in caspase-3 staining was less prominent. […] Therefore, when the animals were euthanized for tumor regrowth they were not receiving any clofarabine. Their last dose of clofarabine was more than two week before the tissue harvest.

Assay [3] has as its system TC-32 ES cells transfected with DCK siRNA. Put plainly: Response to clofarabine after DCK siRNA, ES cells. The class given is cell-based, human. The note with it: TC-32, DCK siRNA.
From the text: The expression of DCK and CD99 was suppressed transiently by using a validated small interfering RNA (siRNA) duplexes targeting coding region (Invitrogen (Carlsbad, Calif.); #s186 and #s8768, respectively). Silencer™ Select Negative Control No. 2 siRNA (Invitrogen) was used as the control. Cells were transfected with DCK or CD99 or control siRNA oligonucleotides using X-tremeGene siRNA transfection reagent (Roche Diagnostics (Basel, Switzerland)) according to the manufacturer's protocol. The cells were analyzed for DCK and CD99 knockdown after 45 or 72 h by immunoblotting.
Assay [4] has as its system ES cell lines RDES and TC-71. Put plainly: Secondary functional screen, growth inhibition in ES cell lines. It is filed as cell-based. The note with it: Homo sapiens; 10 μmol/L, 48 h, WST-1.

In general, inhibition refers to the share of the control response that was lost under treatment. A word on the IC50: it is the point on the concentration scale where inhibition reaches its midpoint. Higher therefore signals weaker potency in that assay.

T1 sequence (P14209 23-185): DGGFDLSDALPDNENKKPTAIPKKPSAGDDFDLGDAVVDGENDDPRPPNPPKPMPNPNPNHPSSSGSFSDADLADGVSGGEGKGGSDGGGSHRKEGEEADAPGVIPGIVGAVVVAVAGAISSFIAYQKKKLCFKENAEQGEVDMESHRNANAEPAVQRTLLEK

In the case of `Nc1nc(Cl)nc2c1ncn2[C@H]1C[C@H](O)[C@@H](CO)O1` [cladribine], the “rescue of reduced cell proliferation induced by CD99 expression” value in assay [1] is “rescued”.
On to `Nc1nc(Cl)nc2c1ncn2[C@@H]1O[C@H](CO)[C@@H](O)[C@@H]1F` [clofarabine], for which the “colony formation in CD99 knockdown cells” value with TC-CD99-shRNA #1 cells is “did not result in further decrease”. Besides, the “thermostability of endogenous CD99 protein” value on CD99 protein was “increased”. For the same compound, the inhibition at 10 µM with U-2 OS cells is not above 10%; in assay [4], not below 70%. Moreover, the “mitotic figures per field” value in the assay with A4573 xenografts (H&E, 200-fold magnification) was not above 3. The apoptotic cells entry in the assay with A4573 xenografts (H&E, confirmed by caspase-3 immunohistochemistry) was “significant increase”; in the assay with TC-71 xenografts (TC-71 xenograft harvested after 2 days of 30 mg/kg oral, H&E, caspase-3), “significant increase”. In addition, in the assay on A4573 xenografts (i.p. once daily, clofarabine 30 mg/kg, vs vehicle), the event-free survival result is “significantly improved”. Moreover, the tumor growth result is on record as “significant inhibition of tumor growth” in the assay with A4573 xenografts (i.p., clofarabine 30 mg/kg) and “more significant inhibition of tumor growth” in the assay on TC-71 xenografts (TC-71 xenograft, 30 mg/kg orally once daily 14 days, compared to i.p. administration). The compound also gave an IC50 with A4573 ES cells of 310 nM. For the same compound, the “phosphorylation levels of MSK1/2” value in [2] was “significantly elevated”. Also, the mitotic figures entry in the assay on TC-71 xenografts (TC-71 xenograft harvested after 2 days of 30 mg/kg oral) is “complete loss”. Besides, the “phosphorylation levels of MSK1/2 in tumors” value in the assay with TC-71 xenografts (TC-71 xenograft, oral 30 mg/kg for two days, three out of four mice) was “significant increase”. This compound gave a median event-free survival in the assay on TC-71 xenografts (TC-71 xenograft, 30 mg/kg orally once daily for 14 days, vehicle 7 days, p<0.0001) of 33 days. The “response after inhibiting DCK protein expression” value in assay [3] is “shift to the right of the IC50 curve”.

The values are drawn from patent US11202792B2, “CD99 inhibitors and their uses” (GEORGETOWN UNIVERSITY, priority 2016, dated 2021).
